Test results taken from patent publication US10449261B2, “Compositions targeting radiation-induced molecules and methods of use thereof” (Washington University, priority 2014, dated 2019).
Entries after “also recorded” stand apart in the source; their conditions may differ. Values belong to the molecule of their own block, whether it stands above or below them. Numbered stars: 1 amine (or outer) side, 2 acyl side, 3 side chain; on linkers, the order of the positions; unused ones are H or OH. Primed or numbered codes have the meaning given here. Ends that are not written are not given here. * marks the point of attachment. K(CHX-A″-DTPA) = O=C(O)CN(CC(=O)O)[C@H](Cc1ccc(NC(=S)NCCCC[C@H](N[*:1])C(=O)[*:2])cc1)CN(CC(=O)O)[C@H]1CCCC[C@@H]1N(CC(=O)O)CC(=O)O; FITC = O=C1OC2(c3ccc(O)cc3Oc3cc(O)ccc32)c2ccc(NC(=S)*)cc21; DTPA = O=C(O)CN(CCN(CC(=O)O)CC(=O)O)CCN(CC(=O)O)CC(=O)*; PEG = not defined here; AEEA = NCCOCCOCC(=O)O

Key:
[1] = test system: HT3 (cervical); assay: Binding of FITC-conjugated GIRLRG to cancer cells (fluorescent microscope); format: cell-based; conditions: 10 μg/ml, 2 h, 37° C.
Description: (§1) Four cancer cell lines D54 (glioma), HT3 (cervical), OE33 (eosophageal) and A549 (lung cancer) were used to evaluate binding of GIRLRG (SEQ ID NO:1) peptide. Cancer cells were incubated with FITC-conjugated GIRLRG (SEQ ID NO:1) peptide and fluorescent images were acquired using a fluorescent microscope.
(§2) Cell Lines: Human lung adenocarcinoma A549 and Human glioblastoma D54 cells were cultured in DMEM/F12, human esophageal carcinoma OE33 cells in RPMI and HT3 cells in IMDM media supplemented with 10% fetal bovine serum, penicillin and streptomycin. They were maintained at 37° C. in a 5% CO2 incubator.
(§3) Immunofluorescence: Cancer cells (A549, HT3, D54 and OE33) were grown on chamber slides (Millipore, USA) and incubated with 10 μg/ml FITC-GIRLRG (SEQ ID NO:1) peptide for 2 h at 37° C. in a CO2 incubator. The cells were then washed with PBS to remove unbound peptide and fixed with 4% paraformaldehyde at room temperature. The nuclei were stained with DAPI and fluorescent images were captured using a Carl Zeiss microscope (Tokyo, Japan).

[2] = test system: A549 (lung cancer); assay: as above; format: cell-based, human; conditions: 10 μg/ml, 2 h, 37° C.
Description: as §1, §2, §3

[3] = test system: D54 (glioma); assay: as above; format: cell-based, human; conditions: 10 μg/ml, 2 h, 37° C.
Description: as §1, §2, §3

[4] = test system: OE33 (eosophageal); assay: as above; format: cell-based, human; conditions: 10 μg/ml, 2 h, 37° C.
Description: as §1, §2, §3

[5] = test system: esophageal (OE33) heterotopic tumors; assay: NanoSPECT/CT imaging and post-SPECT biodistribution in tumor bearing nude mice; conditions: for effect of tumor irradiation on tumor binding: OE33, right hind limb 3 fractions of 3 Gy vs sham left; for tumor uptake, post-SPECT biodistribution, compared to control peptide: OE33 tumor bearing mice, 96 h after injection; for tumor binding by SPECT imaging: OE33 tumors, 48 h and 72 h post injection, 500 μCi via tail vein
Description: (§7) Nude mice bearing the HT3 and OE33 tumors in both the hind limbs were used (˜1 cm^3). Since radiotherapy is used in treating cervical and esophageal cancers, we also irradiated the tumors. The tumor on the right hind limb was irradiated with 3 fractions of 3 Gy over a course of 24 h, the tumor on the left hind limb was used as sham control. The mice were then injected with 500 μCi (10 μCi/μg) of radiolabeled peptide via tail vein. SPECT/CT imaging was performed at 48 and 72 h post injection.
(§8) Tumor models were established in 6 to 8-week-old female athymic nude mice obtained from Harlan laboratories (USA). Heterotopic tumors were induced by sub-cutaneously injecting tumor cells (1-3×10^6) into hind limbs of athymic nude mice. The tumors were grown until a size of 1 cm^3 before using the mice for SPECT imaging.
(§9) Whole body SPECT images were obtained at 48 and 72 h post injection (p.i.) using a NanoSPECT/CT imager (Bioscan Inc., Washington, D.C., USA) fitted with 2 mm pinhole collimators in helical scanning mode. Mice were placed in prone position and scanned under anesthesia (0.5 L/min 1.5% isoflurane in air). A 45-keV helical CT scan was performed first and then the SPECT acquisition was performed at 24 projections and 60 s per projection, for a total scan time of about 45 min. Tomographic data were reconstructed iteratively with the manufacturer-supplied InVivoScope and HiSPECT software for CT and SPECT, respectively.
(§10) After scanning, 96 h p.i., the bio-distribution of the labelled peptide in various organs was determined. The animals were sacrificed and organs of interest including blood were dissected/collected, weighed, and counted in a gamma counter along with a standard of the injected activity to allow calculation of the injected dose per organ (% ID/organ).

[6] = test system: cervical (HT3) heterotopic tumors; conditions: for effect of tumor irradiation on tumor binding: HT3, right hind limb 3 fractions of 3 Gy vs sham left
Description: as §7, §8, §9, §10

[7] = test system: cancer; assay: Optimisation of the peptide construct: circulation and cancer binding; conditions: in vivo
Excerpt: The GIRLRG (SEQ ID NO:1) peptide conjugated to a poly-lysine linker for DOTA and DTPA conjugation was first studied. […] The duration of tumor binding was improved by PEGylation, with longer circulation times and prolonged imaging in cancer. […] Both PEG20 and PEG40 are effective at enhancing prolonged binding in cancer. […]

[8] = test system: cervix tumors; assay: SPECT imaging of 111In-labeled PEG-GIRLRG (Example 1); format: in vivo, mouse; conditions: 72 hours following administration, 3 Gy vs 0Gy
Description: (§4) The right hind limb tumor was treated with 3 Gy and left hind limb tumor is an untreated (0Gy) internal control in the same mouse.

[9] = test system: esophageal tumors; assay: as above; format: in vivo, mouse; conditions: 72 hours following administration, 3 Gy vs 0Gy
Description: as §4

[10] = test system: brain tumors; assay: as above; format: in vivo, mouse; conditions: 72 hours following administration, 3 Gy vs 0Gy
Description: as §4

[11] = test system: pancreatic cancer (BxPC3) tumors; assay: SPECT/CT imaging of tumor models; format: in vivo, mice; conditions: right hind limb 3 doses of 3 Gy
Excerpt: (§5) In addition we also screened lung cancer (A549), pancreatic cancer (BxPC3) and glioblastoma (D54) tumor models for binding of radiolabeled GIRLRG (SEQ ID NO:1) peptide.

[12] = test system: glioblastoma (D54) tumors; assay: SPECT/CT imaging of tumor models; format: in vivo, mice; conditions: right hind limb 3 doses of 3 Gy
Excerpt: as §5

[13] = test system: lung cancer (A549) tumors; assay: SPECT/CT imaging of tumor models; format: in vivo, mice; conditions: right hind limb 3 doses of 3 Gy
Excerpt: as §5

[14] = test system: irradiated A549 tumors; assay: SPECT imaging and gamma emission of organs and tumors (Example 1); format: in vivo, mice; conditions: mice with A549 tumors, 3 Gy
Description: (§6) SPECT images of the spatial and temporal pharmacokinetics of ^111In-labeled PEG-GIRLRG and ^111In-labeled control peptide within irradiated mouse A549 tumors is shown in FIG. 1. At 7 days after administration, gamma emission from each of the organs and tumors of mice injected with PEG-GIRLRG (SEQ ID NO:1) and PEG-control peptide was measured (FIG. 2).

[15] = test system: irradiated mouse A549 tumors; assay: as above; format: in vivo, mice; conditions: A549 tumors, 7 days after administration
Description: as §6

[16] = Size and aggregation of pegylated peptides (dynamic light scattering); format: physicochemical
[17] = target: T1, recombinant eukaryotic GRP78 protein (Prospec, USA) (UniProt P11021 19-654, limits assumed); assay: SPR (BIAcore 2000), GRP78 amine-coupled on a CM4 chip, peptide as analyte at 0.313-10 mM, 25 C, HBS-EP
T1 construct: Immobilised by amine coupling on a CM4 chip; also called Glucose-regulated protein 78 kDa; Glucose Regulatory Protein-78
T1 sequence (P11021 19-654 limits assumed): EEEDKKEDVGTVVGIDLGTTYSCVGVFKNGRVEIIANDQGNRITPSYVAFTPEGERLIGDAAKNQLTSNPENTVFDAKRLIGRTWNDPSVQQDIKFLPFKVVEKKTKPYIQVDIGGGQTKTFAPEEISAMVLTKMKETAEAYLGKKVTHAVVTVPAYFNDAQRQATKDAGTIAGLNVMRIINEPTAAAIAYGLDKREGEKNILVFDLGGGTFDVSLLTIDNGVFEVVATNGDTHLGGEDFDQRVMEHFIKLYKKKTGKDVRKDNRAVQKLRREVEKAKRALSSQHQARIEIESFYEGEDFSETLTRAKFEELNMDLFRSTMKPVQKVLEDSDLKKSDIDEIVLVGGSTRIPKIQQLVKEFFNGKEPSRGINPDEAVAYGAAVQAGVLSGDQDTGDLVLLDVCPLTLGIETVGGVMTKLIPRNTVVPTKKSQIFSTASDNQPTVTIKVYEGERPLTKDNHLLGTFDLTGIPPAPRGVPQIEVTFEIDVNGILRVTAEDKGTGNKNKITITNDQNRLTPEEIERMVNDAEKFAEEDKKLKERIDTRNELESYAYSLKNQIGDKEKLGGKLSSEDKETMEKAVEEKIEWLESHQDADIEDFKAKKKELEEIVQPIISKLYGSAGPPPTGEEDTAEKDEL
Description: To determine the binding affinity of GIRLRG (SEQ ID NO:1) peptide to GRP78 protein, we used surface plasmon resonance technology. GRP78 protein was immobilized on the surface of CM4 sensor chip and approximately 7000 resonance Units (RUs) of GRP78 protein were immobilized (FIG. 6A). The GIRLRG (SEQ ID NO:1) peptide was dissolved in HBS-EP buffer at various concentrations (10, 5, 2.5, 1.25 and 0.313 mM) and passed over the immobilized GRP78 for 2 min (FIG. 6B). The rate constant K_D was obtained by fitting the sensogram data after reference subtraction (data from blank channel) using the BIA evaluation 3.0 software.
Surface Plasmon Resonance (SPR): Affinity of GIRLRG (SEQ ID NO:1) to GRP78 protein was measured by the biosensor-based SPR technique using an automatic apparatus BIAcore 2000 (GE healthcare, Sweden) as described earlier. The recombinant eukaryotic GRP78 protein (Prospec, USA) as ligand that was immobilized by amine coupling on the CM4 sensor surface and GIRLRG (SEQ ID NO:1) peptide was used as the analyte. Experiments were performed at 25° C. in HBS-EP buffer (GE healthcare). GRP78 protein was immobolized using surface preparation wizard for amine coupling. […] The affinity of the interaction was determined from the level of binding at equilibrium as a function of the sample concentrations by BIA evaluation software 3.0.

Molecule: FITC-GIRLRG: FITC-conjugated GIRLRG peptide ({FITC}-GIRLRG)
binding to cancer cells [1]: specifically bound
binding to cancer cells ([1]; listed as FITC labeled GIRLRG): showed binding
binding to cancer cells [2]: specifically bound
binding to cancer cells ([2]; listed as FITC labeled GIRLRG): showed binding
binding to cancer cells [3]: specifically bound
binding to cancer cells ([3]; listed as FITC labeled GIRLRG): showed binding
binding to cancer cells [4]: specifically bound
binding to cancer cells ([4]; listed as FITC labeled GIRLRG): showed binding

effect of tumor irradiation on tumor binding [5]: did not interfere with specific binding
effect of tumor irradiation on tumor binding [6]: did not interfere with specific binding
Molecule: GIRLRG [GIRLRG]

Molecule: ^111In-labeled PEG-DTPA-GIRLRG: PEG-GIRLRG radiolabeled with ^111Indium by use of DTPA as the chelator ({PEG-DTPA}-GIRLRG; reading uncertain; also: radiolabeled with 111In chelated by DTPA)
cancer binding [7]: binds within irradiated cancers
cancer selective binding [8]: cancer selective binding
cancer selective binding [9]: cancer selective binding
cancer selective binding [10]: cancer selective binding
tumor binding by SPECT/CT imaging [11]: enhanced binding
tumor binding by SPECT/CT imaging [12]: enhanced binding
tumor binding by SPECT/CT imaging [13]: enhanced binding
effect of tumor irradiation on tumor binding [5]: did not affect tumor binding
tumor uptake, post-SPECT biodistribution, compared to control peptide [5]: Significantly higher (p<0.001) uptake
tumor binding by SPECT imaging [5]: bound
effect of tumor irradiation on tumor binding [6]: did not affect tumor binding
tumor binding by SPECT imaging ([6]; HT3 tumors, 48 h and 72 h post injection, 500 μCi via tail vein): bound

Molecule: mPEG40K-carbonyl-Lys(CHX-A″-DTPA)-AEEAc-Lys(CHX-A″-DTPA)-AEEAc-Trp-Lys(CHX-A″-DTPA)-AEEAc-GIRLRG ({mPEG40K‑carbonyl-K(CHX-A″-DTPA)-AEEA-K(CHX-A″-DTPA)-AEEA-Trp-K(CHX-A″-DTPA)-AEEA}-GIRLRG) [PEG-GIRLRG]
binding to irradiated normal tissue [14]: did not bind to irradiated normal tissue
tumor binding (gamma emission from organs and tumors) [15]: selectively bound to tumors
size [16]: 8 nm
aggregation ([16]; after heating / radiolabeling conditions): did not aggregate even after heating
tumor binding by SPECT/CT imaging [11]: specific binding; also recorded: Enhanced tumor binding
tumor binding by SPECT/CT imaging [12]: specific binding; also recorded: Enhanced tumor binding
tumor binding by SPECT/CT imaging [13]: specific binding; also recorded: Enhanced tumor binding
tumor uptake, post-SPECT biodistribution, compared to control peptide [5]: Significantly higher uptake
tumor binding by SPECT imaging [5]: specifically bound; also recorded: Enhanced tumor binding

Kd [17]: 2.16 mM
B1: GIRLRG (SEQ ID NO:1) peptide (peptide)
peptide: GIRLRG
notes: Unconjugated synthetic hexapeptide, used as the analyte in SPR and as the ligand in the molecular model; also called lead peptide
